# Test results reported in ChEMBL document CHEMBL4680330, “Soloxolone methyl, as a 18βH-glycyrrhetinic acid derivate, may result in endoplasmic reticulum stress to induce apoptosis in breast cancer cells” (Bioorg Med Chem, 2021).
# Active and inactive are the calls of the source. The calls are words filed in the database; no cut-off is given here.
# Tests used:
# MCF7 [1] = test: Cytotoxicity against human MCF7 cells assessed as reduction in cell viability incubated for 48 hrs by ATP based luminometry; assay type: functional; settings: MCF7, 48 h
# MDA-MB-231 [2] = test: Cytotoxicity against human MDA-MB-231 cells assessed as reduction in cell viability incubated for 48 hrs by ATP based luminometry; assay type: functional; settings: MDA-MB-231, 48 h
# MCF7 [3] = test: Induction of late apoptosis in human MCF7 cells assessed as increase in rate of formation of pycnotic nuclei at 10 uM by Hoechst 33342 and PI staining based fluorescence microscopic analysis; assay type: functional, cell-based; settings: TDE = time-dependent effect
# MCF7 [4] = test: Induction of late apoptosis in human MCF7 cells assessed as increase in PI […] at 10 uM by Hoechst 33342 and PI staining based fluorescence microscopic analysis; assay type: functional, cell-based; settings: TDE = time-dependent effect
# MDA-MB-231 [5] = test: Induction of early apoptosis in human MDA-MB-231 cells assessed as increase in rate of formation of pycnotic nuclei at 10 uM incubated for 24 hrs by Hoechst 33342 and PI staining based fluorescence microscopic analysis; assay type: functional, cell-based
# MCF7 [6] = test: Induction of apoptosis in human MCF7 cells assessed as cytokeratin 18 by measuring increase in M-30 level at 10 uM incubated for 24 hrs by ELISA; assay type: functional, cell-based
# MCF7 [7] = test: Induction of apoptosis in human MCF7 cells assessed as cytokeratin 18 by measuring increase in M-30 level at 10 uM incubated for 48 hrs by ELISA; assay type: functional, cell-based
# MCF7 [8] = test: Induction of apoptosis in human MCF7 cells assessed as late apoptotic cells at 10 uM incubated for 24 hrs by annexin V-FITC and PI staining based flow cytometry analysis (reference value: 14.60 %); assay type: functional
# MCF7 [9] = test: Induction of apoptosis in human MCF7 cells assessed as necrotic cells at 10 uM incubated for 24 hrs by annexin V-FITC and PI staining based flow cytometry analysis (reference value: 15.60 %); assay type: functional
# MDA-MB-231 [10] = test: Induction of apoptosis in human MDA-MB-231 cells assessed as viable cells at 10 uM incubated for 24 hrs by annexin V-FITC and PI staining based flow cytometry analysis (reference value: 94.40 %); assay type: functional; settings: read-out: Activity
# MDA-MB-231 [11] = test: Induction of apoptosis in human MDA-MB-231 cells assessed as late apoptotic cells at 10 uM incubated for 24 hrs by annexin V-FITC and PI staining based flow cytometry analysis (reference value: 3.95 %); assay type: functional
# MDA-MB-231 [12] = test: Induction of apoptosis in human MDA-MB-231 cells assessed as necrotic cells at 10 uM incubated for 24 hrs by annexin V-FITC and PI staining based flow cytometry analysis (reference value: 0.95 %); assay type: functional
# [13] = Induction of caspase 3/7 activity in human MCF7 cells assessed as induction of apoptosis by measuring viable cells at 10 uM incubated for 24 hrs by flow cytometry analysis (reference value: 73.10 %); assay type: functional
# [14] = Induction of caspase 3/7 activity in human MCF7 cells assessed as induction of apoptosis by measuring early apoptotic cells at 10 uM incubated for 24 hrs by flow cytometry analysis (reference value: 0.70 %); assay type: functional
# [15] = Induction of caspase 3/7 activity in human MCF7 cells assessed as induction of apoptosis by measuring late apoptotic cells at 10 uM incubated for 24 hrs by flow cytometry analysis (reference value: 22.90 %); assay type: functional
# [16] = Induction of caspase 3/7 activity in human MDA-MB-231 cells assessed as induction of apoptosis by measuring early apoptotic cells at 10 uM incubated for 24 hrs by flow cytometry analysis (reference value: 0.35 %); assay type: functional
# [17] = Induction of caspase 3/7 activity in human MDA-MB-231 cells assessed as induction of apoptosis by measuring late apoptotic cells at 10 uM incubated for 24 hrs by flow cytometry analysis (reference value: 1.55 %); assay type: functional
# [18] = Induction of caspase 3/7 activity in human MDA-MB-231 cells assessed as induction of apoptosis by measuring necrotic cells at 10 uM incubated for 24 hrs by flow cytometry analysis (reference value: 0.85 %); assay type: functional
# MDA-MB-231 [19] = test: Induction of ROS production in human MDA-MB-231 cells at 10 uM incubated for 24 hrs by flow cytometry analysis relative to control; assay type: functional
# MCF7 [20] = test: Induction of cell death in human MCF7 cells assessed as upregulation of HRK gene at 10 uM incubated for 24 hrs by RT-PCR analysis; assay type: functional, cell-based
# MCF7 [21] = test: Induction of cell death in human MCF7 cells assessed as downregulation of PARP gene at 10 uM incubated for 48 hrs by RT-PCR analysis; assay type: functional, cell-based
# MDA-MB-231 [22] = test: Induction of cell death in human MDA-MB-231 cells assessed as upregulation of BECN1 gene at 10 uM measured after 48 hrs by RT-PCR analysis; assay type: functional, cell-based
# MCF7 [23] = test: Induction of cell death in human MCF7 cells assessed as downregulation of MLKL gene at 10 uM measured after 48 hrs by RT-PCR analysis; assay type: functional, cell-based
# MCF7 [24] = test: Induction of cell death in human MCF7 cells assessed as downregulation of PARP gene at 10 uM measured after 48 hrs by RT-PCR analysis; assay type: functional, cell-based
# MCF7 [25] = test: Induction of cell death in human MCF7 cells assessed as downregulation of RIPK gene at 10 uM measured after 48 hrs by RT-PCR analysis; assay type: functional, cell-based
# MDA-MB-231 [26] = test: Induction of apoptosis in human MDA-MB-231 cells assessed as cleaved PARP level at 10 uM incubated for 24 hrs by Western blot analysis (reference value: 1); assay type: functional
# MCF7 [27] = test: Induction of apoptosis in human MCF7 cells assessed as pro-caspase 8 level at 10 uM incubated for 24 hrs by Western blot analysis (reference value: 1); assay type: functional
# MDA-MB-231 [28] = test: Induction of apoptosis in human MDA-MB-231 cells assessed as pro-caspase 8 level at 10 uM incubated for 24 hrs by Western blot analysis (reference value: 1); assay type: functional
# MDA-MB-231 [29] = test: Induction of apoptosis in human MDA-MB-231 cells assessed as cleaved pro-caspase 3 level at 10 uM incubated for 24 hrs by Western blot analysis (reference value: 1); assay type: functional
# MCF7 [30] = test: Induction of endoplasmic reticulum stress in human MCF7 cells assessed as IRE1-alpha expression at 10 uM incubated for 24 hrs by Western blot analysis (reference value: 1); assay type: functional
# MCF7 [31] = test: Induction of endoplasmic reticulum stress in human MCF7 cells assessed as CHOP expression at 10 uM incubated for 24 hrs by Western blot analysis (reference value: 1); assay type: functional
# MDA-MB-231 [32] = test: Induction of endoplasmic reticulum stress in human MDA-MB-231 cells assessed as IRE1-alpha expression at 10 uM incubated for 24 hrs by Western blot analysis (reference value: 1); assay type: functional
# MDA-MB-231 [33] = test: Induction of endoplasmic reticulum stress in human MDA-MB-231 cells assessed as BIP expression at 10 uM incubated for 24 hrs by Western blot analysis (reference value: 1); assay type: functional
# MDA-MB-231 [34] = test: Induction of endoplasmic reticulum stress in human MDA-MB-231 cells assessed as CHOP expression at 10 uM incubated for 24 hrs by Western blot analysis (reference value: 1); assay type: functional
# MDA-MB-231 [35] = test: Induction of late apoptosis in human MDA-MB-231 cells assessed as increase in PI […] at 10 uM by Hoechst 33342 and PI staining based fluorescence microscopic analysis; assay type: functional, cell-based; settings: TDE = time-dependent effect
structure (smiles),measurement,setting,value
COC(=O)[C@@]1(C)CC[C@]2(C)CC[C@]3(C)[C@H](C(=O)C=C4[C@@]5(C)C=C(C#N)C(=O)C(C)(C)[C@@H]5CC[C@]43C)[C@@H]2C1,IC50,MCF7 [1],4.22 µM
same,IC50,MDA-MB-231 [2],5.97 µM
same,Activity,MCF7 [3],Tde
same,Activity,MCF7 [4],Tde
same,Activity,MDA-MB-231 [5],Active
same,Activity,MCF7 [6],inactive
same,Activity,MCF7 [7],Active
same,Activity,MCF7 [8],18.35%
same,Activity,MCF7 [9],10.8%
same,viability at 10 µM,MDA-MB-231 [10],25.2%
same,Activity,MDA-MB-231 [11],69.55%
same,Activity,MDA-MB-231 [12],2.25%
same,Activity,[13],60.2%
same,Activity,[14],0.55%
same,Activity,[15],24.55%
same,Activity,[16],12.75%
same,Activity,[17],76.4%
same,Activity,[18],0.5%
same,Activity,MDA-MB-231 [19],49.6%
same,Activity,MCF7 [20],Active
same,Activity,MCF7 [21],Active
same,Activity,MDA-MB-231 [22],inactive
same,Activity,MCF7 [23],inactive
same,Activity,MCF7 [24],inactive
same,Activity,MCF7 [25],inactive
same,fold change (FC),MDA-MB-231 [26],6.3
same,fold change (FC),MCF7 [27],1.2
same,fold change (FC),MDA-MB-231 [28],2.1
same,fold change (FC),MDA-MB-231 [29],12.7
same,fold change (FC),MCF7 [30],0.6
same,fold change (FC),MCF7 [31],0.3
same,fold change (FC),MDA-MB-231 [32],1.1
same,fold change (FC),MDA-MB-231 [33],2
same,fold change (FC),MDA-MB-231 [34],6
same,Activity,MDA-MB-231 [35],Tde
